Laboratory results: the METLIN SMRT retention time set (Domingo-Almenara et al. 2019)

Assay: gradient 5% acetonitrile 3 min, to 50% in 2 min, to 85% in 15 min, held 3 min, 100 µL/min
Conditions: column: Zorbax Extend-C18 2.1 x 50 mm; eluents: water / acetonitrile, 0.1% formic acid
Summary of the method: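 In both positive and negative ionization mode, a quadrupole time-of-flight mass spectrometer coupled to HPLC analyzed pure standards run in mixtures of ~100 molecules. The Zorbax Extend-C18 column (2.1 × 50 mm, 1.8 μm) was operated at 100 μL/min with water and acetonitrile, each containing 0.1% formic acid. The dead volume was 40 μL and the dwell volume 900 μL. Retention time came from adduct peaks that were computationally picked and individually inspected by hand.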

Row | SMILES | RP-LC retention time
1 | Cc1nc2cc(-c3noc(-c4cccc(Cl)c4)n3)ccc2o1 | 1210 s
2 | Cc1ccc(S(=O)(=O)NCCC(=O)O)cc1C | 639 s
3 | O=C(Cn1ccc2ccccc21)NCc1ccc(OC(F)(F)F)cc1 | 971 s
4 | O=C(Nc1cccc(-c2ccccc2)c1)N1CCN(C(=O)Nc2cccc(-c3ccccc3)c2)CC1 | 980 s
5 | CC1CCC(NC(=O)C2CCN(S(=O)(=O)c3cc(C(=O)N(C)C)cs3)CC2)CC1 (configuration not stated) | 797 s
6 | O=C(O)CSc1c(-c2ccccc2)c2cc(Cl)ccc2[nH]c1=O | 806 s
7 | COCCNc1c(-c2cccc(F)c2)nc2sc(C(=O)NC3CCCC3)c(C)n12 | 917 s
8 | CNCCC(Oc1ccccc1C)c1ccccc1 (configuration not stated) | 778 s
9 | O=C(Nc1ccc(F)cc1F)N1CCC(OC2CCN(Cc3ccccc3)CC2)CC1 | 656 s
10 | CCC1CCCCN1CCCNC(=O)c1c(N2CCCC2=O)c2cc(OC)ccc2n1C (configuration not stated) | 638 s
11 | CN(C)C(=O)c1ccc2c(c1)nnn2CCNC(=O)Nc1ccc(Cl)cc1 | 678 s
12 | COc1cc(-c2nc3ncccn3c2NCc2ccc(Cl)cc2)ccc1OC(C)C | 808 s
13 | O=C(NCc1ccc2c(c1)OCO2)C1CCN(C(=O)c2cc(-c3cccnc3)n[nH]2)CC1 | 656 s
14 | O=c1ccn(-c2ccc(Cl)cc2)nc1-c1nc(-c2ccc(Br)cc2)no1 | 1080 s
15 | Cc1ccc(NC(=O)NCC2CCOCC2)cc1C | 726 s
16 | CCN1CCCn2cc(S(=O)(=O)Nc3cccc(F)c3)cc2C1=O | 716 s
17 | Cn1nc(C(=O)N2C[C@@H]3C[C@H]2C[C@@H]3NC(=O)c2cccs2)c2ccccc21 | 766 s
18 | CCc1noc(NC(C)=O)c1-c1ccc(C)c(S(=O)(=O)Nc2cccc(Cl)c2)c1 | 867 s
19 | O=C1CCCc2c1cc(C(=O)Nc1ccc(Cl)cc1)c(=O)n2-c1ccc(F)cc1 | 1060 s

Row | SMILES | RP-LC retention time
20 | Cc1cccn2cc(C(=O)NCc3ccc(Cl)cc3)nc12 | 704 s
21 | CCC(C)(C)C(=O)O[C@H]1C[C@@H](C)C=C2C=C[C@H](C)[C@H](CC[C@@H](O)C[C@@H](O)CC(=O)O)[C@H]21 | 1020 s
22 | Cc1nnc(-c2ccc3ccn(CC(=O)NCCc4ccc(Cl)cc4)c3c2)o1 | 824 s
23 | CCCCn1cc(S(=O)(=O)Nc2cccc(C)c2)c2cccnc21 | 976 s
24 | Cc1[nH]nc(-c2ccc(S(=O)(=O)N3CCC(C)CC3)o2)c1C | 932 s
25 | Cc1csc(-c2cc(S(=O)(=O)NCc3ccco3)c(C)n2C)n1 | 864 s
26 | CC(C)C(=O)N1CCc2c(c(C(=O)N3CCC(C(=O)N4CCC5(CC4)OCCO5)CC3)nn2C)C1 | 626 s
27 | Cc1ccc(-n2c(N3CCCC(C(=O)NCCCOC(C)C)C3)nc3ccsc3c2=O)cc1 (configuration not stated) | 838 s
28 | CCCn1cc(-c2ccncc2)cc1C(=O)Nc1ccc(NC(C)=O)cc1 | 594 s
29 | COc1cccc(-c2csc(Cc3nc(-c4ccccc4Cl)no3)n2)c1 | 1150 s
30 | Cc1nn2c(S(=O)(=O)NCc3cccs3)c(C)nc2s1 | 704 s
31 | Cc1c(C(=O)O)nnn1Cc1cccc(C(F)(F)F)c1 | 744 s
32 | O=C(NCCCN1CCOCC1)c1ccc(CS(=O)Cc2cccc(Cl)c2)o1 (configuration not stated) | 610 s
33 | CCc1cccc(NC(=O)c2cc3sccc3n2Cc2ccc(Cl)cc2)c1 | 1340 s
34 | COc1ccc(S(=O)(=O)N2CCCC(C(=O)N3CCOCC3)C2)cc1Cl (configuration not stated) | 766 s
35 | CCn1cc(CCN2CCN(C(=O)C3CCCC3)CC2)c2cccnc21 | 597 s
36 | COc1ccc(C2=C(C)C(N3CCN(c4ccccn4)CC3)=NS2(=O)=O)cc1 | 620 s
37 | O=C(NCCCS(=O)(=O)N1CCN(c2ncccn2)CC1)c1ccncc1 | 568 s
